US8524750B2, “(Pyrazol-3-yl)-1,3,4-thiadiazol-2-amine and (pyrazol-3-yl)-1,3,4-thiazol-2-amine compounds” (Glaxo Group Limited, priority 2009, dated 2013)
In brackets after ≈: the same amount, converted by molar mass. Like-named read-outs stand apart in the source and are kept apart here.

Tests used:
[1] = molecular target: T1, Mycobacterium tuberculosis InhA (Mycobacterium tuberculosis, UniProt P9WGR1); assay: Mycobacterium tuberculosis InhA Inhibition Assay (Enzyme Assay); type: biochemical; details: 5 nM InhA, 50 μM DDCoA, 50 μM NADH, PIPES buffer pH 6.8, initial velocities of NADH consumption
T1 construct: made in house; host or cells: E. coli
Protocol: Mycobacterium tuberculosis InhA Inhibition Assay (Enzyme Assay)
InhA is able to reduce 2-trans enoyl-CoA esters with concomitant oxidation of NADH to NAD^+. The assay format is based on the kinetic detection of NADH consumption.
Assay for InhA inhibition is carried out with mycobacterium recombinant protein expressed and purified form E. coli. Standard assay conditions for the determination of kinetic constants and inhibitors activity use 5 nM of InhA, 50 μM of Dodecenoyl-CoA synthesized and purified as described by Quernard et al (DDCoA) and 50 μM of NADH as substrates, and it is carried out in 30 mM PIPES buffer pH 6.8, containing 0.05% of BSA. […] Triclosan is used as positive control in every experiment. One μl of compounds is added to the wells containing 25 μl of the DDCoA+NADH mix, the reaction is started by adding 50 μl of the enzyme solution. Fluorescence from NADH is followed at room temperature during 20 minutes in a fluorescent plate reader (excitation at 340 nm; emission at 480 nm). IC50 values are determined using initial velocities of NADH consumption.
Quernard A, Sacchettini J C, Dessen A, et al. Enzymatic characterization of the target for isoniazid in Mycobacterium tuberculosis. Biochemistry 1995; 34:8235-41.

[2] = test system: Mycobacterium tuberculosis H37Rv; assay: Mycobacterium tuberculosis H37Rv Inhibition Assay (Whole Cell Assay); type: cell-based; details: ATCC 25618 / H37Rv, H37Rv strain (ATCC25618), Middlebrook 7H9, six days at 37° C., resazurin fluorescence after 48 hours

T1 sequence (P9WGR1 whole entry, looked up): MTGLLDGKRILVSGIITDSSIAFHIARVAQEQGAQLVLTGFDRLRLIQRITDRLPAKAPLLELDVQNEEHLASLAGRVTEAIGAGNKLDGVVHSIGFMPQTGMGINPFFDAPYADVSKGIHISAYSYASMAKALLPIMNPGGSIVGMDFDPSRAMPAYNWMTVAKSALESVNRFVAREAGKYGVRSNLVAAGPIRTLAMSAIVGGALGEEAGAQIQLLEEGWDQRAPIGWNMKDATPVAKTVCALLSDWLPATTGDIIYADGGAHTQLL

Row | SMILES | IC50 ([1]; read-out: IC50 value) | MIC [2] | IC50 ([1]; IC50 value)
1 | Cc1cc(C)n(C(C)c2nnc(Nc3cc(C)n(Cc4c(F)cccc4Cl)n3)s2)n1 (centres unmarked) [Example 19, N-{1-[(2-chloro-6-fluorophenyl)methyl]-5-methyl-1H-pyrazol-3-yl}-5-[1-(3,5-dimethyl-1H-pyrazol-1-yl)ethyl]-1,3,4-thiadiazol-2-amine] | < 112 nM | 1 to 4 µM (≈ 0.446 to 1.78 µg/mL) | –
2 | Cc1cc([N+](=O)[O-])nn1Cc1nnc(Nc2ccn(Cc3c(F)cccc3Cl)n2)s1 [Example 50, N-{1-[(2-chloro-6-fluorophenyl)methyl]-1H-pyrazol-3-yl}-5-[(5-methyl-3-nitro-1H-pyrazol-1-yl)methyl]-1,3,4-thiadiazol-2-amine] | < 111 nM | > 10 µM | –
3 | Cc1ccn(C(C)c2nnc(Nc3ccn(Cc4cccc(C)c4F)n3)s2)n1 (centres unmarked) [Example 13, N-{1-[(2-fluoro-3-methylphenyl)methyl]-1H-pyrazol-3-yl}-5-[1-(3-methyl-1H-pyrazol-1-yl)ethyl]-1,3,4-thiadiazol-2-amine] | < 126 nM | ≤ 1 µM | –
4 | Cc1csc(C(C)(C)c2nnc(Nc3ccn(Cc4c(F)cccc4Cl)n3)s2)n1 [Example 74, N-{1-[(2-chloro-6-fluorophenyl)methyl]-1H-pyrazol-3-yl}-5-[1-methyl-1-(4-methyl-1,3-thiazol-2-yl)ethyl]-1,3,4-thiadiazol-2-amine] | – | 1 to 4 µM (≈ 0.449 to 1.8 µg/mL) | < 111 nM
5 | Cc1csc(C(C)(O)c2nnc(Nc3ccn(Cc4cccc(F)c4F)n3)s2)n1 (centres unmarked) [Example 80, 1-[5-({1-[(2,3-difluorophenyl)methyl]-1H-pyrazol-3-yl}amino)-1,3,4-thiadiazol-2-yl]-1-(4-methyl-1,3-thiazol-2-yl)ethanol] | – | ≤ 1 µM | < 115 nM
6 | Cc1cc([N+](=O)[O-])nn1Cc1nnc(Nc2ccn(Cc3ccccc3)n2)s1 [Example 62, 5-[(5-methyl-3-nitro-1H-pyrazol-1-yl)methyl]-N-[1-(phenylmethyl)-1H-pyrazol-3-yl]-1,3,4-thiadiazol-2-amine] | 252 to 1260 nM | > 10 µM | –
7 | Cc1ccn(Cc2nnc(Nc3ccn(Cc4ccccc4)n3)s2)n1 [Example 60, 5-[(3-methyl-1H-pyrazol-1-yl)methyl]-N-[1-(phenylmethyl)-1H-pyrazol-3-yl]-1,3,4-thiadiazol-2-amine] | 285 to 1420 nM | > 10 µM | –
8 | CCOc1c(F)ccc(F)c1Cn1ccc(Nc2nnc(C(C)n3nc(C)cc3C)s2)n1 (centres unmarked) [Example 82, 5-[1-(3,5-dimethyl-1H-pyrazol-1-yl)ethyl]-N-(1-{[2-(ethyloxy)-3,6-difluorophenyl]methyl}-1H-pyrazol-3-yl)-1,3,4-thiadiazol-2-amine] | – | 4 to 10 µM (≈ 1.84 to 4.6 µg/mL) | < 109 nM
9 | Cc1csc(C(C)c2nnc(Nc3ccn(Cc4c(F)ccc(C)c4F)n3)s2)n1 (centres unmarked) [Example 85, N-{1-[(2,6-difluoro-3-methylphenyl)methyl]-1H-pyrazol-3-yl}-5-[1-(4-methyl-1,3-thiazol-2-yl)ethyl]-1,3,4-thiadiazol-2-amine] | – | 1 to 4 µM (≈ 0.433 to 1.73 µg/mL) | < 116 nM
10 | Cc1cc(C)n(C(C)c2nnc(Nc3ccn(Cc4ccc(F)cc4)n3)s2)n1 (centres unmarked) [Example 75, 5-[1-(3,5-dimethyl-1H-pyrazol-1-yl)ethyl]-N-{1-[(4-fluorophenyl)methyl]-1H-pyrazol-3-yl}-1,3,4-thiadiazol-2-amine] | – | > 10 µM | 126 to 252 nM
11 | Cc1csc(C(C)c2nnc(Nc3ccn(Cc4cccc(C)c4F)n3)s2)n1 (centres unmarked) [Example 25, N-{1-[(2-fluoro-3-methylphenyl)methyl]-1H-pyrazol-3-yl}-5-[1-(4-methyl-1,3-thiazol-2-yl)ethyl]-1,3,4-thiadiazol-2-amine] | < 121 nM | 1 to 4 µM (≈ 0.415 to 1.66 µg/mL) | –
12 | Cc1cc(C)n(C(C)c2nnc(Nc3ccn(Cc4cc(N)ccc4Cl)n3)s2)n1 (centres unmarked) [Example 26, N-{1-[(5-amino-2-chlorophenyl)methyl]-1H-pyrazol-3-yl}-5-[1-(3,5-dimethyl-1H-pyrazol-1-yl)ethyl]-1,3,4-thiadiazol-2-amine] | < 117 nM | > 10 µM | –
13 | Cc1cc(C)n(Cc2nnc(Nc3ccn(Cc4c(F)cccc4Cl)n3)s2)n1 [Example 51, N-{1-[(2-chloro-6-fluorophenyl)methyl]-1H-pyrazol-3-yl}-5-[(3,5-dimethyl-1H-pyrazol-1-yl)methyl]-1,3,4-thiadiazol-2-amine] | < 120 nM | > 10 µM | –
14 | Cc1ccn([C@H](C)c2nnc(Nc3ccn(Cc4c(F)cccc4Cl)n3)s2)n1 (single isomer, unassigned) [Example 66] | < 120 nM | 1 to 4 µM (≈ 0.418 to 1.67 µg/mL) | –
15 | Cc1ccn(C(C)c2nnc(Nc3ccn(Cc4ccccc4Br)n3)s2)n1 (centres unmarked) [Example 5, N-{1-[(2-bromophenyl)methyl]-1H-pyrazol-3-yl}-5-[1-(3-methyl-1H-pyrazol-1-yl)ethyl]-1,3,4-thiadiazol-2-amine] | < 113 nM | 4 to 10 µM (≈ 1.78 to 4.44 µg/mL) | –
16 | Cc1csc(C(C)(O)c2nnc(Nc3ccn(Cc4cccc(C)c4F)n3)s2)n1 (centres unmarked) [Example 83, 1-[5-({1-[(2-fluoro-3-methylphenyl)methyl]-1H-pyrazol-3-yl}amino)-1,3,4-thiadiazol-2-yl]-1-(4-methyl-1,3-thiazol-2-yl)ethanol] | – | ≤ 1 µM | < 116 nM
17 | Cc1ccn(C(C)c2nnc(Nc3ccn(Cc4cc(Cl)ccc4Cl)n3)s2)n1 (centres unmarked) [Example 4, N-{1-[(2,5-dichlorophenyl)methyl]-1H-pyrazol-3-yl}-5-[1-(3-methyl-1H-pyrazol-1-yl)ethyl]-1,3,4-thiadiazol-2-amine] | < 115 nM | 4 to 10 µM (≈ 1.74 to 4.34 µg/mL) | –
18 | Cc1csc(C(C)c2nnc(Nc3ccn(Cc4cccc(Cl)c4F)n3)s2)n1 (centres unmarked) [Example 33, N-{1-[(3-chloro-2-fluorophenyl)methyl]-1H-pyrazol-3-yl}-5-[1-(4-methyl-1,3-thiazol-2-yl)ethyl]-1,3,4-thiadiazol-2-amine] | < 115 nM | 1 to 4 µM (≈ 0.435 to 1.74 µg/mL) | –
19 | Cc1ccn(C(C)c2nnc(Nc3ccn(Cc4c(F)cccc4Cl)n3)s2)n1 (racemic) [Example 38, N-{1-[(2-chloro-6-fluorophenyl)methyl]-1H-pyrazol-3-yl}-5-[1-(3-methyl-1H-pyrazol-1-yl)ethyl]-1,3,4-thiadiazol-2-amine] | < 120 nM | ≤ 1 µM | –
20 | Cc1cc([N+](=O)[O-])nn1C(C)c1nnc(Nc2ccn(Cc3ccccc3Cl)n2)s1 (centres unmarked) [Example 40, N-{1-[(2-chlorophenyl)methyl]-1H-pyrazol-3-yl}-5-[1-(5-methyl-3-nitro-1H-pyrazol-1-yl)ethyl]-1,3,4-thiadiazol-2-amine] | < 112 nM | 1 to 4 µM (≈ 0.445 to 1.78 µg/mL) | –
21 | COC(c1nc(C)cs1)c1nnc(Nc2ccn(Cc3c(F)cccc3F)n2)s1 (centres unmarked) [Example 73, N-{1-[(2,6-difluorophenyl)methyl]-1H-pyrazol-3-yl}-5-[(methyloxy)(4-methyl-1,3-thiazol-2-yl)methyl]-1,3,4-thiadiazol-2-amine] | – | > 10 µM | 115 to 230 nM
22 | Cc1cc(C)n(C(C)c2nnc(Nc3ccn(Cc4cccc(F)c4F)n3)s2)n1 (centres unmarked) [Example 10, N-{1-[(2,3-difluorophenyl)methyl]-1H-pyrazol-3-yl}-5-[1-(3,5-dimethyl-1H-pyrazol-1-yl)ethyl]-1,3,4-thiadiazol-2-amine] | < 120 nM | ≤ 1 µM | –
23 | Cc1cc(C)n(C(C)c2nnc(Nc3ccn(Cc4cccc(C)c4F)n3)s2)n1 (centres unmarked) [Example 24, 5-[1-(3,5-dimethyl-1H-pyrazol-1-yl)ethyl]-N-{1-[(2-fluoro-3-methylphenyl)methyl]-1H-pyrazol-3-yl}-1,3,4-thiadiazol-2-amine] | < 122 nM | ≤ 1 µM | –
24 | Cc1cc(C)n(C(C)c2nnc(Nc3ccn(Cc4c(F)ccc(N)c4F)n3)s2)n1 (centres unmarked) [Example 87, N-{1-[(3-amino-2,6-difluorophenyl)methyl]-1H-pyrazol-3-yl}-5-[1-(3,5-dimethyl-1H-pyrazol-1-yl)ethyl]-1,3,4-thiadiazol-2-amine] | – | 1 to 4 µM (≈ 0.43 to 1.72 µg/mL) | < 116 nM
25 | Cc1cc(C(F)F)nn1C(C)c1nnc(Nc2ccn(Cc3ccccc3Cl)n2)s1 (centres unmarked) [Example 41, N-{1-[(2-chlorophenyl)methyl]-1H-pyrazol-3-yl}-5-{1-[3-(difluoromethyl)-5-methyl-1H-pyrazol-1-yl]ethyl}-1,3,4-thiadiazol-2-amine] | < 111 nM | 4 to 10 µM (≈ 1.8 to 4.5 µg/mL) | –
26 | Cc1cc(C)n(C(C)c2nnc(Nc3ccn(Cc4ccccc4C(F)(F)F)n3)s2)n1 (centres unmarked) [Example 1, 5-[1-(3,5-dimethyl-1H-pyrazol-1-yl)ethyl]-N-(1-{[2-(trifluoromethyl)phenyl]methyl}-1H-pyrazol-3-yl)-1,3,4-thiadiazol-2-amine] | < 112 nM | 4 to 10 µM (≈ 1.79 to 4.47 µg/mL) | –
27 | Cc1cc(C)n(C(C)c2nnc(Nc3ccn(Cc4cccc(N)c4C)n3)s2)n1 (centres unmarked) [Example 27, N-{1-[(3-amino-2-methylphenyl)methyl]-1H-pyrazol-3-yl}-5-[1-(3,5-dimethyl-1H-pyrazol-1-yl)ethyl]-1,3,4-thiadiazol-2-amine] | < 122 nM | 4 to 10 µM (≈ 1.63 to 4.09 µg/mL) | –
28 | Cc1ccn(Cc2nnc(Nc3ccn(Cc4c(Cl)cccc4Cl)n3)s2)n1 [Example 57, N-{1-[(2,6-dichlorophenyl)methyl]-1H-pyrazol-3-yl}-5-[(3-methyl-1H-pyrazol-1-yl)methyl]-1,3,4-thiadiazol-2-amine] | < 119 nM | > 10 µM | –
